The values below come from patent US20220041957A1, “GLUCAMIDE-BASED SURFACTANTS” (Clariant International Ltd., priority 2018, published 2022).

One series can be described thus: Foam (collapse) test. In kind it is physicochemical. The settings on record: 20 mL of 1 wt. % solution, 20 shakes; for Foam Height, 2 min: after 2 min; for Foam Height, 3 min: after 3 min; for Foam Height, 5 min: after 5 min; for Foam Height, Initial: directly after shaking. As to the method: 20 mL of 1 wt. % solution of each substance were placed into a graduated 100 mL measurement cylinder, which was sealed with a stopper. Foam was generated by 20 shakes. The foam height was determined as mL foam above the aqueous layer directly after shaking, after 2, 3 and 5 min.

Series [1] can be described thus: Wetting test on cotton swatches. In kind it is physicochemical. The settings on record: 0.1 wt. % surfactant solution in water; for Wetting Performance: rating in words; for Wetting time: time until swatch sinks to bottom. As to the method:
Cotton swatches (ISO 8022, obtained from wfk-Testgewebe GmbH) were placed in 600 mL beaker, filled with the corresponding 0.1 wt. % surfactant solution in water. The time between placing the swatches into the solution and sinking to the bottom was measured.

As for `CCCCCCCCCCCC(O)CC(=O)N(C)C[C@H](O)[C@@H](O)[C@H](O)[C@H](O)CO` (stereo partly drawn) [Example 2], in the series “Foam (collapse) test”, the “Foam Height, 2 min” value came to 60 mL; the “Foam Height, 3 min” value came out at 33 mL; the “Foam Height, 5 min” value amounted to 19 mL; the “Foam Height, Initial” value is given as 80 mL. Moreover, in series [1], the “Wetting Performance” value is given as “good” and the Wetting time was determined as 60 s.
Turning to `CN(C[C@H](O)[C@@H](O)[C@H](O)[C@H](O)CO)C(=O)CCCCCCCCCCCCCCCO` [Example 4], in the series “Foam (collapse) test”, the “Foam Height, 2 min” value was 67 mL; the “Foam Height, 3 min” value was 50 mL; the “Foam Height, 5 min” value is reported as 33 mL; the “Foam Height, Initial” value is given as 89 mL. Moreover, in series [1], the “Wetting Performance” value is “poor” and the Wetting time is given as >300 s.
